Tested on: SD rats
Experiment: Inhibition of postprandial blood glucose rise per saccharide (sucrose load)
Type: in vivo, rat
Settings: 100 mg/kg oral with 2 g/kg sucrose, control 207.8
Procedure: To SD rats, 100 mg/kg (based on body weight) of each of standard substances from monosaccharide to tetra-saccharide and 2 g/kg (based on body weight) of sucrose were orally administered by 1 ml/rat using an oral administration sonde. At 30 minutes, 60 minutes and 120 minutes after the oral administration, blood was collected from the tail vein of each SD rat and a change in blood glucose concentration in venous blood was measured using a blood glucose meter (CareSens II).

Compound | blood glucose at 30 minutes after the meal [mg/dL]
N[C@H]1[C@H](O[C@H]2[C@H](O)[C@@H](N)C(O)O[C@@H]2CO)O[C@H](CO)[C@@H](O)[C@@H]1O (stereo partly drawn) [disaccharide] | 177.6
N[C@H]1[C@H](O[C@H]2[C@H](O)[C@@H](N)[C@H](O[C@H]3[C@H](O)[C@@H](N)C(O)O[C@@H]3CO)O[C@@H]2CO)O[C@H](CO)[C@@H](O)[C@@H]1O (stereo partly drawn) [trisaccharide] | 179.4
N[C@H]1C(O)O[C@H](CO)[C@@H](O)[C@@H]1O (stereo partly drawn) [monosaccharide] | 210.7

Reference: patent US20140228314A1, “METHOD FOR PREPARATION OF CHITOSAN OLiGOSACCHARIDES COMPOSITION AND MIXTURE OF CHITOSAN OLiGOSACCHARIDES PREPARED THEREFROM” (KUNPOONG BIO CO., LTD, priority 2013, published 2014)
